Measured values reported in publication PMC7895427, “A stapled peptide mimetic of the CtIP tetramerization motif interferes with double-strand break repair and replication fork protection” (Science Advances, 2021).
Positions of bridges follow the written chain, without caps; N, C: chain ends. Non-standard residues stand in square brackets, D forms with d. Residues, ends and D or L forms follow the SMILES beside them. R8 = C=CCCCCCC[C@@](C)(N)C(=O)O; S5 = C=CCCC[C@](C)(N)C(=O)O

Experiments:
[1] = CD spectroscopy and CD thermal denaturation; type: physicochemical; settings: 210 nm, 25° until 90°C, ddH2O
Description: CD spectroscopy data were collected on a Jasco J-710 spectropolarimeter. A total of 0.2 or 0.05 mg/ml of LP^18–28 or SP^18–28 in ddH2O was measured with a 1-mm path length cuvette. CD spectra were recorded at 0.5-nm intervals between 190 and 260 nm at 25°C. CD thermal denaturation data were recorded at 210 nm at 0.2°C intervals starting at 25° until 90°C.

U2OS cells = assay: EdU incorporation, cell cycle distribution and cell proliferation; type: cell-based; settings: fig. S5, E and F; proliferation at 5 μM
Description: HeLa cells were seeded into six-well plates and incubated with peptides in a volume of 2 ml for varying time points. Cells were harvested by trypsinization, washed, and resuspended in PBS before subjecting them to flow cytometry analysis. FITC intensity was measured with an Attune Nxt flow cytometer equipped with a 488-nm laser and 530/30 band-pass filter. Analysis of 5-Ethynyl-2′-deoxyuridine (EdU) incorporation was carried out using the Click-iT EdU technology (Thermo Fisher Scientific) as described in the manufacturer’s instructions. A minimum of 20,000 events were recorded.
A total of 125 and 250 U2OS cells were seeded in triplicates in 96-well plates in a volume of 90 μl. Twenty-four hours after seeding, 10 μl of medium only or medium with the indicated peptides was added to the wells reaching a final peptide concentration of 5 μM. Cell proliferation was monitored using a CellTiter-Blue–based (Promega) approach at specific time points (0, 2, 5, and 7 days after peptide treatment). In brief, 20-μl CellTiter-Blue reagent (Promega) was added to the wells, incubated for 4 hours, and fluorescence intensity was measured at 560/590 nm using a SpectraMax M5 microplate reader (Molecular Devices).

RPE1 = assay: Clonogenic survival assay; type: cell-based; settings: 10 μM peptide 24 hours, 10 days growth; BRCA1 wt nontumorigenic cell line
Description: (§1) Two hundred cells per well were seeded into poly-L-lysine (Sigma-Aldrich)–coated 24-well plates and the next day treated with respective drugs (CPT, Sigma-Aldrich; olaparib, Selleck Chemicals) and peptides (total volume: 300 μl per well). For details, see figure legends. After 10 days of growth, cells were fixed with crystal violet solution [0.5% crystal violet and 20% ethanol (w/v)]. Plates were scanned, and survival was analyzed with the ImageJ plugin Colony Area using the parameter colony intensity as readout ([47]).

HeLa cells = assay: Clonogenic survival assay; type: cell-based; settings: 10 μM, fig. S7A
Description: as §1

MCF10A = assay: Clonogenic survival assay; type: cell-based; settings: 10 μM peptide 24 hours, 10 days growth; BRCA1 wt nontumorigenic cell line
Description: as §1

MCF7 = assay: Clonogenic survival assay; type: cell-based; settings: 10 μM peptide 24 hours, 10 days growth; BRCA1 wt breast cancer cell line
Description: as §1

full-length CtIP-wt = target: T1, full-length CtIP-wt (Homo sapiens, UniProt Q99708); assay: Blue native PAGE of full-length CtIP incubated with peptides; type: biochemical; settings: 1- to 32-fold molar excess SP^18–28, 32-fold LP^18–28, 30 min RT
T1 construct: Full-length CtIP was purified according to ([14]); 3xFLAG; made in house
Description: Reactions were assembled in a volume of 10 μl with a 1.5 μM final concentration of CtIP and either 0, 1.5, 3, 6, 12, 24, or 48 μM LP/SP^18–28 in buffer A [10 mM tris (pH 8.0), 25 mM NaCl, 5% glycerol, and 0.5 mM dithiothreitol (DTT)] and 1× Blue Native Loading buffer [50 mM bis-tris (pH 7.2), 6 N HCl, 50 mM NaCl, 10% (w/v) glycerol, and 0.001% Ponceau S]. After incubation for 30 min at RT, samples were loaded onto a NativePAGE Novex 3 to 12% bis-tris gel (Invitrogen) and run at 150 V for 75 min. Gels were fixed in 40% methanol (MeOH) and 10% acetic acid and destained with 8% acetic acid.

U2OS^GFP-CtIP-wt = assay: Laser microirradiation, GFP-CtIP recruitment to γH2AX-decorated laser stripes; type: cell-based; settings: 10 μM peptide, 24 hours, fixed 30 min after microirradiation; n = 4
Description: Laser microirradiation was carried out as described previously ([25]). Briefly, cells were grown in 10 μM 5-bromo-2′-deoxyuridine (BrdU) for 24 hours before irradiation. Laser microirradiation was performed using a MMI CELLCUT system containing an ultraviolet (UV) A laser of 355 nm. Energy output was set to 50%, and each cell was exposed to laser beam for <300 ms. Cells were released for 30 min before fixation in 4% formaldehyde (w/v) in PBS for 15 min and permeabilization with 0.5% Triton X-100 (w/v) in PBS for 5 min at RT. After blocking with 3% FCS (w/v) in PBS for 1 hour, cells were stained with primary antibodies (table S3) for 2 hours. Staining with secondary antibodies (table S3) was performed for 1 hour. Coverslips were mounted with Vectashield supplemented with DAPI (4′,6-diamidino-2-phenylindole; Vector Laboratories), and images were acquired on a Leica DM6, 63× objective. For CtIP foci analyses, cells were fixed in 4% formaldehyde (w/v) in PBS for 15 min before permeabilization with 0.5% Triton X-100 (w/v) in PBS for 5 min at RT. A blocking step with 3% FCS (w/v) in PBS for 1 hour was followed by primary (2-hour) and secondary (1-hour) staining at RT.

U2OS EGFP-HR = assay: HR reporter assay; type: cell-based; settings: 10 μM peptide, 24 hours; GFP-positive cells by flow cytometry; n = 4
Description: HR reporter assay was performed as described previously ([45], [46]). Briefly, U2OS EGFP-HR were seeded into a 12-well plate and the day after transfected with pCBA I-SceI expression plasmid using jetPRIME transfection reagent (Polyplus). Four hours later, medium was exchanged, and cells were incubated with peptides for 24 hours in 1-ml total volume. Twenty-four hours later, medium was replaced, and cells were harvested 48 hours after I-SceI transfection. A-EJ reporter assay was performed according to ([10]) with some minor modifications. Specifically, U2OS EGFP-aEJ were seeded into six-well plates and siRNA transfected. Six hours later, cells were transfected with I-SceI expression plasmid (pCBA) using Fugene 6 (Promega). Medium was exchanged 24 hours after and replaced with 2-ml fresh medium and the peptides (10 μM). Twenty-four hours later, medium was again replaced with fresh medium without peptides, and 72 hours after I-SceI transfection, cells were harvested. GFP expression (readout for HR and a-EJ frequency) was measured by flow cytometry using the Attune Nxt flow cytometer equipped with a 488-nm laser and 530/30 band-pass filter. A minimum of 20,000 events were recorded.

T1 sequence (Q99708 whole entry): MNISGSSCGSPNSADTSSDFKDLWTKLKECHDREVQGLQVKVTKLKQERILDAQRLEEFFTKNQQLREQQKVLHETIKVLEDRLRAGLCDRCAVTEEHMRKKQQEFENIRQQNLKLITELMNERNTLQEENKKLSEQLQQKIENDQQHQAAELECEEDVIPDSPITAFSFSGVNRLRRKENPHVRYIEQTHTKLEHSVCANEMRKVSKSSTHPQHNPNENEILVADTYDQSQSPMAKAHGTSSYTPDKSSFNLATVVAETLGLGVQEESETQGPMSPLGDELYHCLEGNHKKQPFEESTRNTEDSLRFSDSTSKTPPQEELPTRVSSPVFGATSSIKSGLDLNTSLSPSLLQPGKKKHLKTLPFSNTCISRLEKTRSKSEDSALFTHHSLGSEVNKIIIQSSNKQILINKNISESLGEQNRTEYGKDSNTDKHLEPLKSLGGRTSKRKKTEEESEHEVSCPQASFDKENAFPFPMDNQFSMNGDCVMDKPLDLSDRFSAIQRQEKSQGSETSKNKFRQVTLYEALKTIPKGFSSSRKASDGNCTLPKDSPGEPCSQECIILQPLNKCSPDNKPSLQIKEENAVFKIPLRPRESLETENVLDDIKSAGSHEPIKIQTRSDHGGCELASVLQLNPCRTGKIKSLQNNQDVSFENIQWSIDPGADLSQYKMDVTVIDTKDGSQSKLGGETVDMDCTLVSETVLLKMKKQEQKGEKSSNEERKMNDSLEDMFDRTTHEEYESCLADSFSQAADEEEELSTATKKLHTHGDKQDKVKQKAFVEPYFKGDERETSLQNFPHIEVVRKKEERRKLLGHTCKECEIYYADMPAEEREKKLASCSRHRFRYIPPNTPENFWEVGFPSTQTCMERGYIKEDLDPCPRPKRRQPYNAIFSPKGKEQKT

Row | Compound | heat stability of secondary structure (CD thermal denaturation) [1] | bulk DNA replication, cell cycle distribution and cell proliferation (U2OS cells) | cell survival (clonogenic) (RPE1) | tolerability of acute peptide treatment (clonogenic) (HeLa cells; acute (24-hour) treatment) | cytotoxicity of chronic peptide treatment on its own (clonogenic) (HeLa cells; prolonged chronic treatment) | cell survival (clonogenic) (MCF10A) | cell survival (clonogenic) (MCF7) | effect on CtIP-wt oligomeric state (full-length CtIP-wt) | CtIP recruitment to γH2AX-decorated laser stripes (U2OS^GFP-CtIP-wt) | HR frequency of I-SceI–induced DSBs (U2OS EGFP-HR)
1 | CC(=O)N[C@@H](CO)C(=O)N[C@]1(C)CCCCCCC=CCCC[C@@](C)(C(=O)N[C@@H](CC(C)C)C(=O)N[C@@H](CCCCN)C(N)=O)NC(=O)[C@H]([C@@H](C)O)NC(=O)[C@H](Cc2c[nH]c3ccccc23)NC(=O)[C@H](CC(C)C)NC(=O)[C@H](CC(=O)O)NC(=O)[C@H](CCCCN)NC(=O)[C@H](Cc2ccccc2)NC1=O [SP^18–28] (Ac-S[R8]FKDLWT[S5]LK-NH2; staple 2-9) | no unfolding could be observed at temperatures of up to 90 °C | neither interferes with bulk DNA replication nor causes any significant changes in cell cycle distribution and cell proliferation | did not perceive a negative impact on cell survival | well tolerated | extreme cytotoxicity | did not perceive a negative impact on cell survival | did not perceive a negative impact on cell survival | – | – | –
2 | Ac-SDFKDLWTKLK-NH2 [LP^18–28] | – | – | – | – | – | – | – | no apparent structural changes | no significant effect | no measurable impact
